Measured values reported in patent US12384780B2, “PARP1 inhibitors and uses thereof” (XinThera, Inc., priority 2022, dated 2025).

Columns and labels:
[1] = tested on: MDA-MB-436 (mutated BRCA1) cells; assay: Cell growth inhibition assay (CellTiter-Glo), MDA-MB-436; assay type: cell-based; details: Homo sapiens, MDA-MB-436, 168 h, 500 cells/well, 7 days, CellTiter Glo 2.0; read-out: MDA-MB-436 pEC50 (converted)
Procedure: (§1) Cell proliferation was measured through the cell viability assay using DLD-1 BRCA2(−/−) and parental isogenic pair and MDA-MB-436 (mutated BRCA1) cell lines. The CellTiter-Glo (CTG) based cell viability assay is designed to determine the number of viable cells in the culture because of compound effect, by quantifying ATP, which indicates the presence of metabolically active cells.
(§2) DLD-1 BRCA2(−/−) and parental isogenic pair were cultured in RPMI 1640 supplemented with […] (FBS), and […] cells were cultured in DMEM supplemented with 10% FBS. Both were cultured at 37° C. with […]. Invention compounds were distributed to the 384 well plate (Corning, 3764) using Echo acoustic liquid handler to form a 1:3 serially diluted final concentration with top dose of 10 or 30 μM. The cells were seeded into the plate in the density of 50 cells/well (DLD-1 parental), 200 cells/well (DLD-1 BRCA2−/−), or 500 cells/well (MDA-MB-436). After a short spun, the cells were cultured in a well moisturized incubator at 37° C. with 5% CO2 for 7 days without disturbance. The cell viability was measured by CellTiter Glo 2.0 assay kit (Promega, G9243), and growth inhibition rate was calculated and plotted against final compound concentration, and the data were fitted in Xfit to generate IC50 values.

PARP1 = target: T1, PARP1 (Homo sapiens, UniProt P09874); assay: Biochemical fluorescent polarization (FP) assay, displacement of PARPi-FL, PARP1; assay type: binding; details: 20 nM protein, 3 nM PARPi-FL, 4 h at room temperature; for IC50: read-out: FP PARP1 pIC50 (converted)
T1 construct: made in house
Procedure: (§3) Compounds were characterized using an assay measuring the displacement of a commercially available fluorescently labeled PARP 1/2 inhibitor (PARPi-FL, Tocris Biosciences, #6461) as exemplified in assays performed in WO2014/064149 and WO2021/013735A1. The assay was performed utilizing the following method: Compounds were dissolved in DMSO an Echo550 liquid handler was utilized to make serial dilations in the desired concentration range in Optiplate-384F plates. 100% DMSO was used for the high (with protein) and low (without protein) control samples. 20 nL of compound or DMSO alone was added to individual assay plate wells. PARP1 and PARP2 protein were expressed, purified, and diluted in assay buffer containing 50 mM Tris pH 8.0, 0.001% Triton X-100, 10 mM MgCl2, 150 mM NaCl to a final concentration of 20 nM. The PARPi-FL was then added at a final concentration of 3 nM. The assay plate was centrifuged at 1000 rpm for 1 min and incubated for 4 h at room temperature. […] [formula]

PARP2 = target: T2, PARP2 (Homo sapiens, UniProt Q9UGN5); assay: Biochemical fluorescent polarization (FP) assay, displacement of PARPi-FL, PARP2; assay type: binding; details: 20 nM protein, 3 nM PARPi-FL, 4 h at room temperature; read-out: FP PARP2 pIC50 (converted)
T2 construct: made in house
Procedure: as §3

DLD-1 BRCA2(−/−) cells = assay: Cell growth inhibition assay (CellTiter-Glo), DLD-1 BRCA2(−/−); assay type: cell-based; details: Homo sapiens, DLD-1, 168 h; 200 cells/well, 7 days, CellTiter Glo 2.0; read-out: DLD-1 BRCA2(−/−) pEC50 (converted)
Procedure: as §1, §2

T2 sequence (Q9UGN5 whole entry): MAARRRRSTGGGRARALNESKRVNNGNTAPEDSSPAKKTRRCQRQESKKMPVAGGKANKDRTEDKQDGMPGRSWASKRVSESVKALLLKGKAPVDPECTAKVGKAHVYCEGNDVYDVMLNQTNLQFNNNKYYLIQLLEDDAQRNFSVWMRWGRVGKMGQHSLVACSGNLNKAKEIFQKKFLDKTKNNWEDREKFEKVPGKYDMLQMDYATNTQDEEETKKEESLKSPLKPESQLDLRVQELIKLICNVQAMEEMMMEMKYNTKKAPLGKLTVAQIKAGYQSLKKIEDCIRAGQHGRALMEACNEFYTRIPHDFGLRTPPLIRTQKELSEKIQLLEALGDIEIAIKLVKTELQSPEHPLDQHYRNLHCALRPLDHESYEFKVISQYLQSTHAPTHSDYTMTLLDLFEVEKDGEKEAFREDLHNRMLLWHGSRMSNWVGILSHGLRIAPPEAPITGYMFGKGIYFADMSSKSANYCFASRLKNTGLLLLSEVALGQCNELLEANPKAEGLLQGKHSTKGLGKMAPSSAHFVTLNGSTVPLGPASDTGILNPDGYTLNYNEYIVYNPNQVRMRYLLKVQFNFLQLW
T1 sequence (P09874 whole entry): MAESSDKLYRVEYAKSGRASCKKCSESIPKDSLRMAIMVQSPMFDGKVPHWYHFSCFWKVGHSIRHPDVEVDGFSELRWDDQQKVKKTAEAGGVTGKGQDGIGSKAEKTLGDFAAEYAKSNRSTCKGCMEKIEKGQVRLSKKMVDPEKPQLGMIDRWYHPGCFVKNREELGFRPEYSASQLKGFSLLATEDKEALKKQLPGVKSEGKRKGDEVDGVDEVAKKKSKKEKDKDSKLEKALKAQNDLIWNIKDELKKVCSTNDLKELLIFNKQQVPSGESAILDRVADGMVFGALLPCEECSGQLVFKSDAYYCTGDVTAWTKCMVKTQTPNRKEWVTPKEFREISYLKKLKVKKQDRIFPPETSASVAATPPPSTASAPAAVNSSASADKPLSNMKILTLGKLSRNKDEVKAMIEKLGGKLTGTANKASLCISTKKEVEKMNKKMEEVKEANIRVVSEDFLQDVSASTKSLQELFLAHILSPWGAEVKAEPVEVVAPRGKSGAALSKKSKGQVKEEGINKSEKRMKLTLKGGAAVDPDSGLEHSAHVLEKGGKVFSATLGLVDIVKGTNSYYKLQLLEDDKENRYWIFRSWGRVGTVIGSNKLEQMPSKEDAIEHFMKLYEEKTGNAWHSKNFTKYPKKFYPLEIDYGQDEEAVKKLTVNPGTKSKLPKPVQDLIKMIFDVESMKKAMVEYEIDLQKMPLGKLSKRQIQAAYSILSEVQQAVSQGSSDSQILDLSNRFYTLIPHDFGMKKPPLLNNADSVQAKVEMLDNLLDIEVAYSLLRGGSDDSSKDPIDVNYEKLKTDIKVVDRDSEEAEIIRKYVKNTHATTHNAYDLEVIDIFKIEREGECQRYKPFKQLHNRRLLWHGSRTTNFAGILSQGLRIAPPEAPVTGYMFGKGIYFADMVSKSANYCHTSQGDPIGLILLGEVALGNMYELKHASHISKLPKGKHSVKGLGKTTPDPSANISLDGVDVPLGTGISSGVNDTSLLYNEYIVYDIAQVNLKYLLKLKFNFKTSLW

SMILES | EC50 [1] [nM] | IC50 (PARP1) [nM] | IC50 (PARP2) [nM] | EC50 (DLD-1 BRCA2(−/−) cells) [nM] | FP PARP1 pIC50 (PARP1)
CCc1cc2ncc(CN3CCN(c4ccc(C#N)c(F)c4)CC3)cc2[nH]c1=O [Example 38] | 0.501 | 5.01 | 501 | 0.631 | –
CCc1cc2ncc(CN3CCN(c4cnc(Cl)cc4C#N)CC3)cc2[nH]c1=O [Example 65] | 2.51 | – | – | 3.16 | –
CCc1cc2ncc(CN3CCN(c4ncc(C#N)cc4F)CC3)cc2[nH]c1=O [Example 54] | 79.4 | 63.1 | – | 63.1 | –
N#Cc1ccc(N2CCN(Cc3cnc4cc(Cl)c(=O)[nH]c4c3)CC2)c(F)n1 [Example 61] | 2 | 6.31 | > 100000 | 3.16 | –
CCc1cc2ncc(CN3CCN(c4ccc(C#N)nc4)[C@H]4C[C@H]43)cc2[nH]c1=O (single isomer, unassigned) [Example 14] | 50.1 | 5.01 | 6310 | 63.1 | –
CCc1cc2ncc(CN3CCN(c4ccc(F)nc4)CC3)cc2[nH]c1=O [Example 34] | 39.8 | 10 | 50100 | 50.1 | –
Cc1cc(C#N)ccc1N1CCN(Cc2cnc3cc(C(F)F)c(=O)[nH]c3c2)CC1 [Example 75] | 0.501 | 25.1 | – | 0.631 | –
[2H]C([2H])(c1cnc2cc(C)c(=O)[nH]c2c1)N1CCN(c2ccc(C#N)cn2)CC1 [Example 37] | 1.58 | – | > 100000 | 3.16 | 8.5
Cc1cc2ncc(CN3CCN(c4ccc(Cl)cc4C#N)CC3)cc2[nH]c1=O [Example 51] | 2.51 | 20 | – | 3.98 | –
C#Cc1cc2ncc(CN3CCN(c4ccc(C#N)nc4)CC3)cc2[nH]c1=O [Example 1, 5-{4-[(7-ethynyl-6-oxo-5H-1,5-naphthyridin-3-yl)methyl]piperazin-1-yl}pyridine-2-carbonitrile] | 63.1 | 15.8 | – | 63.1 | –
Cc1cc2ncc(CN3CCN(c4ccc(F)cc4C#N)CC3)cc2[nH]c1=O [Example 35] | 2.51 | 10 | 63100 | 3.16 | –
CCc1cc2ncc(CN3CCN(c4cc(F)c(C#N)cc4F)CC3)cc2[nH]c1=O [Example 41] | 1 | 12.6 | 2000 | 0.794 | –
N#Cc1ccc(N2CCN(Cc3cnc4cc(C5CC5)c(=O)[nH]c4c3)[C@H]3C[C@H]32)nc1 (single isomer, unassigned) [Example 20] | 39.8 | 5.01 | 2510 | 50.1 | –
Cc1cc2ncc(CN3CCN(c4ccc(C#N)cc4)CC3)cc2[nH]c1=O [Example 43] | 2.51 | 5.01 | 6310 | 3.16 | –
N#Cc1ccc(N2CCN(Cc3cnc4cc(C(F)F)c(=O)[nH]c4c3)CC2)c(C(F)F)c1 [Example 80] | 1 | 15.8 | – | 1.26 | –
N#Cc1ccc(N2CCN(Cc3cnc4cc(Cl)c(=O)[nH]c4c3)CC2)c(F)c1 [Example 76] | 5.01 | 63.1 | – | 5.01 | –
Cc1cc2ncc(CN3CCN(c4cc(F)c(F)cc4C#N)CC3)cc2[nH]c1=O [Example 53] | 5.01 | 12.6 | – | 6.31 | –
Cc1nc2c(F)c(F)c(CN3CCN(c4ccc(C#N)cn4)CC3)cc2[nH]c1=O [Example 72] | 39.8 | 15.8 | – | 63.1 | –

SMILES | EC50 [1] [nM] | IC50 (PARP1) [nM] | IC50 (PARP2) [nM] | EC50 (DLD-1 BRCA2(−/−) cells) [nM] | FP PARP1 pIC50 (PARP1)
Cc1nc2ccc(CN3CCN(c4ccc(C#N)nc4F)CC3)c(F)c2[nH]c1=O [Example 74] | 31.6 | 15.8 | – | 20 | –
N#Cc1ccc(N2CCN(Cc3ccc4cc(Cl)c(=O)[nH]c4c3F)CC2)nc1 [Example 83, 6-{4-[(3-chloro-8-fluoro-2-oxo-1H-quinolin-7-yl)methyl]piperazin-1-yl}pyridine-3-carbonitrile] | 6.31 | 10 | – | 10 | –
Cc1nc2ccc(CN3CCN(c4ccc(C#N)nc4Cl)CC3)c(F)c2[nH]c1=O [Example 73] | 15.8 | 25.1 | – | 20 | –
N#Cc1ccc(N2CCN(Cc3cnc4cc(C5CC5)c(=O)[nH]c4c3)CC2)c(F)c1 [Example 46] | 1.58 | 10 | – | 2 | –
Cc1nc2c(F)cc(CN3CCN(c4ccc(C#N)cn4)CC3)cc2[nH]c1=O [Example 49, 6-{4-[(8-fluoro-2-methyl-3-oxo-4H-quinoxalin-6-yl)methyl]piperazin-1-yl}pyridine-3-carbonitrile] | 12.6 | 10 | – | 10 | –
CCc1cc2ncc(CN3CCN(c4ncc(F)cc4C#N)CC3)cc2[nH]c1=O [Example 56] | 63.1 | 15.8 | – | 100 | –
N#Cc1ccc(N2CCN(Cc3cnc4cc(C(F)F)c(=O)[nH]c4c3)CC2)c(Cl)n1 [Example 81] | 0.631 | 10 | – | 0.631 | –
CCc1cc2ncc(CN3CCN(c4ccc(F)cn4)CC3)cc2[nH]c1=O [Example 4] | 2 | – | – | 2 | –
Cc1c(C(F)F)c2ncc(CN3CCN(c4ccc(C#N)cn4)CC3)cc2[nH]c1=O [Example 82, 6-(4-((8-(difluoromethyl)-7-methyl-6-oxo-5,6-dihydro-1,5-naphthyridin-3-yl)methyl)piperazin-1-yl)nicotinonitrile] | 39.8 | 31.6 | – | 100 | –
Cc1cc2ncc(CN3CCN(c4ccc(C#N)cc4C#N)CC3)cc2[nH]c1=O [Example 50] | 1.58 | 25.1 | – | 2 | –
N#Cc1ccc(N2CCN(Cc3cnc4cc(C(F)F)c(=O)[nH]c4c3)CC2)c(F)n1 [Example 62] | 1.26 | 63.1 | – | 1.58 | –
Cc1cc2ccc(CN3CCN(c4ccc(C#N)cn4)CC3)c(F)c2[nH]c1=O [Example 71, 6-{4-[(8-fluoro-3-methyl-2-oxo-1H-quinolin-7-yl)methyl]piperazin-1-yl}pyridine-3-carbonitrile] | 15.8 | 10 | – | 12.6 | –
O=c1[nH]c2cc(CN3CCN(c4ccc(F)cn4)CC3)cnc2cc1Cl [Example 47, 3-chloro-7-{[4-(5-fluoropyridin-2-yl)piperazin-1-yl]methyl}-1H-1,5-naphthyridin-2-one] | 7.94 | 10 | – | 2.51 | –
CCc1cc2ncc(CN3CCN(c4ccc(C#N)cc4F)CC3)cc2[nH]c1=O [Example 45] | 1 | – | – | 1.26 | –
CCc1nc2cc(F)c(CN3CCN(c4ccc(C#N)cn4)CC3)cc2[nH]c1=O [Example 12, 6-{4-[(2-ethyl-7-fluoro-3-oxo-4H-quinoxalin-6-yl)methyl]piperazin-1-yl}pyridine-3-carbonitrile] | 10 | 7.94 | – | 10 | –
N#Cc1ccc(N2CCN(Cc3cnc4cc(C5CC5)c(=O)[nH]c4c3)CC2)nc1 [Example 17] | 2 | – | – | 2.51 | –
Cc1nc2ccc(CN3CCN(c4ccc(C#N)cn4)CC3)c(F)c2[nH]c1=O [Example 70] | 31.6 | 10 | – | 25.1 | –
